Data taken from the NIST ThermoML archive (doi:10.1021/je0342825).

Experiments:
[1] = 101.3 kPa, Liquid
[2] = xn = mol fraction of the nth substance listed; conditions: 101.3 kPa, Liquid

CC(=O)O [acetic acid]
[1]
Conditions | mass density [kg/m3] | speed of sound [m/s] | viscosity [mPa·s]
293.15 K | 1049.3 | 1149 | 1.211
298.15 K | 1043.65 | 1132 | 1.115
303.15 K | 1038 | 1115 | 1.034

CCO [ethanol]
[1]
Conditions | mass density [kg/m3] | speed of sound [m/s] | viscosity [mPa·s]
293.15 K | 789.75 | 1162 | 1.187
298.15 K | 785.46 | 1145 | 1.082
303.15 K | 781.15 | 1128 | 0.987

CCOC(C)=O [ethyl acetate]
[1]
Conditions | mass density [kg/m3] | speed of sound [m/s] | viscosity [mPa·s]
293.15 K | 900.52 | 1163 | 0.452
298.15 K | 894.43 | 1140 | 0.426
303.15 K | 888.3 | 1118 | 0.403

CO [methanol]
[1]
Conditions | mass density [kg/m3] | speed of sound [m/s] | viscosity [mPa·s]
293.15 K | 791.9 | 1121 | 0.585
298.15 K | 787.2 | 1104 | 0.545
303.15 K | 782.48 | 1088 | 0.508

COC(C)=O [methyl ethanoate]
[1]
Conditions | mass density [kg/m3] | speed of sound [m/s] | viscosity [mPa·s]
293.15 K | 933.56 | 1174 | 0.386
298.15 K | 926.98 | 1151 | 0.367
303.15 K | 920.34 | 1128 | 0.348

COC(C)=O [methyl ethanoate] + CC(=O)O
[2]
Conditions | mass density, 293.15 K [kg/m3] | mass density, 298.15 K [kg/m3] | mass density, 303.15 K [kg/m3] | speed of sound, 293.15 K [m/s] | speed of sound, 298.15 K [m/s] | speed of sound, 303.15 K [m/s] | viscosity, 293.15 K [mPa·s] | viscosity, 298.15 K [mPa·s] | viscosity, 303.15 K [mPa·s]
x2 = 0 | 933.56 | 926.98 | 920.34 | 1174 | 1151 | 1128 | 0.386 | 0.367 | 0.348
x2 = 0.0496 | 938.74 | 932.23 | 925.65 | 1177 | 1154 | 1131 | 0.401 | 0.381 | 0.362
x2 = 0.0956 | 943.44 | 936.98 | 930.46 | 1177 | 1155 | 1133 | 0.417 | 0.395 | 0.376
x2 = 0.195 | 953.14 | 946.77 | 940.34 | 1177 | 1155 | 1133 | 0.46 | 0.436 | 0.412
x2 = 0.3007 | 963.86 | 957.58 | 951.24 | 1176 | 1154 | 1133 | 0.506 | 0.48 | 0.453
x2 = 0.3902 | 973.23 | 967.02 | 960.77 | 1174 | 1153 | 1132 | 0.552 | 0.521 | 0.492
x2 = 0.4937 | 984.52 | 978.4 | 972.24 | 1172 | 1151 | 1131 | 0.617 | 0.58 | 0.547
x2 = 0.5953 | 996.15 | 990.1 | 984.03 | 1169 | 1149 | 1129 | 0.691 | 0.646 | 0.608
x2 = 0.6894 | 1007.51 | 1001.55 | 995.56 | 1166 | 1147 | 1127 | 0.775 | 0.725 | 0.68
x2 = 0.7943 | 1020.92 | 1015.05 | 1009.16 | 1162 | 1143 | 1124 | 0.894 | 0.834 | 0.782
x2 = 0.8987 | 1034.93 | 1029.17 | 1023.39 | 1156 | 1138 | 1120 | 1.037 | 0.962 | 0.896
x2 = 0.9502 | 1042.19 | 1036.49 | 1030.77 | 1153 | 1136 | 1118 | 1.12 | 1.037 | 0.964

O [water]
[1]
Conditions | viscosity [mPa·s]
293.15 K | 1.003
298.15 K | 0.89
303.15 K | 0.797

O [water] + CC(=O)O
[2], x2 = 0
Conditions | viscosity [mPa·s]
293.15 K | 1.003
298.15 K | 0.89
303.15 K | 0.797
